Values joined by “and” are separate entries in the source; they are usually repeats but may differ in a detail not shown here. Identical values can stand only once.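 Protocol summary: plate cells (96-well), add compound at 5 concentrations, incubate 48 h, interpolate endpoints linearly. The concentration for 50% growth inhibition is given as GI50. TGI: total growth inhibition.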
Legend:
Experiment in all cases: growth of human tumour cells (NCI), 48 h
[1] = test system: MDA-MB-231 breast
[2] = test system: K-562 leukemia
[3] = test system: KM12 colon
[4] = test system: MCF7 breast
[5] = test system: MALME-3M melanoma
[6] = test system: IGROV1 ovarian
[7] = test system: SK-MEL-28 melanoma
[8] = test system: UACC-257 melanoma
[9] = test system: NCI-H460 lung
[10] = test system: UACC-62 melanoma

SMILES	TGI [1]	TGI [2]	TGI [3]	TGI [4]	TGI [5]	TGI [6]	TGI [7]	TGI [8]	TGI [9]	GI50 [10]	TGI [10]	GI50 [2]	GI50 [5]	GI50 [6]	GI50 [1]	GI50 [3]	GI50 [4]	GI50 [7]	GI50 [8]	GI50 [9]
Cc1ccc([N+](=O)[O-])c2c(NCCCN(C)C)ccnc12	> 100 µM	> 100 µM	> 100 µM	> 100 µM	44.8 µM	91.8 µM	> 100 µM	> 91.1 µM	76.1 µM	–	–	–	–	–	–	–	–	–	–	–
COCC(=O)OC1CCn2c1nc1c2C(=O)C(C)=C(NC(C)=O)C1=O (centres undefined)	4.71 µM	11.9 µM	30.5 µM	3.53 µM and 3.75 µM	4.94 µM and 6.11 µM	32.7 µM	28.6 µM	9.08 µM	38.2 µM	2.08 µM	4.16 µM and 7.52 µM	3.23 µM	2.37 µM	4.3 µM	–	–	–	–	–	–
CNC(=O)c1cc(Oc2ccc(NC(=O)Nc3ccc(Cl)c(OC(F)(F)F)c3)c(F)c2)ccn1	8.74 µM	8.22 µM	9.09 µM	7.17 µM	–	16.6 µM	4.27 µM	6.54 µM	17.6 µM	1.34 µM	10 µM	1.22 µM	–	2.3 µM	1.26 µM	1.17 µM	1.12 µM	1.01 µM	1.19 µM	2.22 µM
C=C1C(=O)O[C@H]2[C@H]1CC/C(COC(=O)c1cc3cc(OC)ccc3[nH]1)=C\CC[C@@]1(C)O[C@@H]21	3.2 µM	10.8 µM	3.33 µM	1.74 µM	3.14 µM	3.17 µM	2.61 µM	3 µM	3.84 µM	1.38 µM	2.72 µM	0.562 µM	1.61 µM	1.48 µM	1.58 µM	1.54 µM	0.341 µM	1.23 µM	1.61 µM	1.83 µM
CNC(=O)c1ccc(-c2cnc3ncc(Cc4ccc5ncccc5c4)n3n2)cc1F	> 100 µM	> 100 µM	> 100 µM	> 100 µM	> 100 µM	> 100 µM	> 100 µM	> 100 µM	> 100 µM	> 100 µM	> 100 µM	> 100 µM	62.7 µM	> 100 µM	40.8 µM	> 100 µM	> 100 µM	> 100 µM	> 100 µM	> 100 µM
CS(=O)(=O)Nc1ccc(-c2ccc3c(NC(=O)C4CC4)n[nH]c3c2)cc1	> 25 µM	> 25 µM	> 25 µM	> 25 µM	> 25 µM	> 25 µM	> 25 µM	> 25 µM	> 25 µM	22.7 µM	> 25 µM	13.3 µM	> 23.1 µM	> 25 µM	> 25 µM	> 16.2 µM	> 23.2 µM	> 25 µM	> 25 µM	> 22.5 µM
CCCCCC(C(O)C#N)C(O)(C(F)(F)F)C(F)(F)F (centres undefined)	> 10 µM	> 10 µM	> 10 µM	> 10 µM	> 10 µM	> 10 µM	> 10 µM	> 10 µM	–	–	> 10 µM	–	–	–	–	–	–	–	–	–
COC(=O)c1c(O)ccc2[nH]c(C)c(C#N)c12	> 100 µM	> 100 µM	> 100 µM	> 100 µM	94 µM	> 100 µM	> 100 µM	> 100 µM	> 100 µM	25.7 µM	90.4 µM	55.3 µM	47.9 µM	67.2 µM	39.9 µM	39.5 µM	46.3 µM	65.9 µM	> 100 µM	37.3 µM
C=CC(=O)N1CCN(c2ncnc3c(F)c(-c4c(O)cccc4F)c(Cl)cc23)CC1	35.9 µM	> 100 µM	28 µM	29.3 µM	24.8 µM	24.8 µM	26 µM	30.4 µM	33.5 µM	9.36 µM	22.1 µM	21.2 µM	11.5 µM	11.6 µM	14.3 µM	11.7 µM	9.68 µM	13.3 µM	14.4 µM	14.8 µM
CC(=O)[CH-]C(C)=O.CC(=O)[CH-]C(C)=O.N=CC=N.[Sn+2]	9.87 µM	13 µM	8.49 µM	12 µM	4.24 µM	22.4 µM	4.27 µM	15.9 µM	10.8 µM	2.17 µM	5.85 µM	2.19 µM	2.02 µM	9.53 µM	2.72 µM	2.94 µM	2.63 µM	1.92 µM	4.64 µM	3.9 µM
Cn1c(N)nc2c(nc(OCc3ccccc3)n2C2OC(CO)C(O)C2O)c1=O (centres undefined)	> 100 µM	> 100 µM	> 100 µM	> 100 µM	> 100 µM	> 100 µM	> 100 µM	> 100 µM	> 100 µM	–	> 100 µM	–	–	–	–	–	–	–	–	–
COc1cc(/C=C2\CC3C4CC=C5CC(N6CCCC6)CC[C@]5(C)C4CC[C@]3(C)C2OC(C)=O)ccc1OCCN1CCCC1 (some centres undefined)	22.5 µM	3.19 µM	5.99 µM	3.17 µM	3.07 µM	3.63 µM	5.42 µM	3.53 µM	3.92 µM	1.79 µM	3.45 µM	1.04 µM	1.49 µM	1.8 µM	8.82 µM	2.27 µM	1.62 µM	2.51 µM	1.95 µM	1.9 µM
CNC(=O)c1cn(C[C@H](F)CCc2ccc(NC(=O)Cc3cc(OC4CC(F)(F)C4)cc(C)n3)nn2)nn1	> 100 µM	> 100 µM	> 100 µM	> 100 µM	> 100 µM	> 100 µM	> 100 µM	> 100 µM	> 100 µM	> 100 µM	> 100 µM	> 100 µM	> 100 µM	> 100 µM	> 100 µM	> 100 µM	> 100 µM	> 100 µM	> 100 µM	> 100 µM
CC1=C(C)C(=O)O[C@@H]([C@](C)(O)[C@]2(O)CC[C@@]3(O)[C@@H]4C[C@H]5O[C@]56CC=CC(=O)[C@]6(C)[C@H]4CC[C@]23C)C1	7.66 µM	> 27.8 µM	1.57 µM	2.8 µM	3.4 µM	2.59 µM	1.92 µM	2.33 µM	2.4 µM	0.0996 µM	1.57 µM	0.0907 µM	0.382 µM	0.283 µM	0.394 µM	0.266 µM	0.0668 µM	0.233 µM	0.172 µM	0.618 µM
CCCNCc1cc(C)cc2c1nc(N1CCNCC1)n2Cc1cc(C)c(F)c(C)c1	3.8 µM	3.78 µM	11.7 µM	6.05 µM	3.53 µM	25.1 µM	3.54 µM	–	4.03 µM	1.87 µM	3.66 µM	1.9 µM	1.86 µM	10.3 µM	1.61 µM	3.08 µM	2.25 µM	1.84 µM	–	1.93 µM
CC(=O)O[C@H]1C(=O)[C@@]2(C)[C@H]([C@H](OC(=O)c3ccccc3)[C@]3([O-])C[C@H](OC(=O)[C@H]([O-])[C@@H](NC(=O)c4ccccc4)c4ccccc4)C(C)=C1C3(C)C)[C@]1(OC(C)=O)CO[C@@H]1C[C@@H]2[O-].[Fe+3]	63.9 µM and 32.2 µM	65 µM and > 100 µM	0.21 µM and 1.21 µM	65 µM and 32.7 µM	–	65 µM and 72.5 µM	64.8 µM	65 µM and > 100 µM	65 µM and 25.5 µM	0.238 µM and 0.0875 µM	65 µM and 15.8 µM	0.0839 µM and 0.0988 µM	–	0.0426 µM and 0.211 µM	0.746 µM and 0.732 µM	0.0324 µM and 0.0623 µM	0.0226 µM and 0.0315 µM	13.2 µM	–	0.0266 µM and 0.0498 µM
CC(C)(C)c1nc2c(o1)C(=Nc1ccc(F)cc1)c1ccccc1C2=O	> 100 µM	> 100 µM	52.5 µM	29.1 µM	4.45 µM	> 66.7 µM	26 µM	8.41 µM	21.5 µM	–	6.62 µM	–	–	–	–	–	–	–	–	–
Oc1c(Br)cc(CN(Cc2cc(Br)c(O)c(Br)c2)C2CCCCC2)cc1Br	> 100 µM	> 100 µM	> 100 µM	> 100 µM	> 100 µM	> 100 µM	> 100 µM	> 100 µM	–	–	> 100 µM	–	–	–	–	–	–	–	–	–
C=C1CC(COc2cc(Cl)nc(N)n2)C1	–	–	–	–	–	–	–	–	–	–	–	40 µM	93.3 µM	84.1 µM	30.1 µM	25.5 µM	39.4 µM	–	–	55.6 µM
COc1ccc2c(c1)[C@@]13CCN4CC5=CCO[C@H]6CC(=O)N2[C@H]1[C@H]6[C@H]5C[C@H]43	> 100 µM	–	> 100 µM	> 100 µM	> 100 µM	> 100 µM	> 100 µM	> 100 µM	> 100 µM	–	> 100 µM	–	–	–	–	–	–	–	–	–
Cc1c(C(=O)NN)nnn1-c1ccnc2c(C(F)(F)F)cccc12	> 100 µM	> 100 µM	> 100 µM	> 100 µM	–	> 100 µM	> 100 µM	> 100 µM	> 100 µM	> 100 µM	> 100 µM	> 100 µM	–	> 100 µM	> 100 µM	> 100 µM	> 100 µM	> 100 µM	> 100 µM	> 100 µM
C=C(C)[C@@H]1CC[C@@]2(C(=O)O)CC[C@]3(C)C(CCC4[C@@]5(C)CCC(OS(=O)(=O)c6ccccc6)C(C)(C)C5CC[C@]43C)C12 (some centres undefined)	25.6 µM	–	15 µM	19.6 µM	26 µM	31.2 µM	22.4 µM	39.6 µM	15.5 µM	2.55 µM	19.3 µM	–	12.2 µM	10.4 µM	8.58 µM	3.37 µM	4.4 µM	9.9 µM	4.76 µM	3.36 µM
COc1ccc2c(c1)C=CC(C#N)N2C(=O)c1ccccc1 (centres undefined)	3.14 µM	> 100 µM	> 100 µM	> 100 µM	–	> 100 µM	> 100 µM	> 100 µM	36.7 µM	< 0.01 µM	> 100 µM	< 0.01 µM	–	–	< 0.01 µM	< 0.01 µM	< 0.01 µM	–	45.2 µM	< 0.01 µM
CCOC(=O)[C@@H](C)C[C@H](Cc1ccccc1)NC(=O)c1csc([C@@H](C[C@H](C(C)C)N(C)C(=O)[C@@H](NC(=O)[C@H]2CCCCN2C)C(C)(C)C)OC(C)=O)n1	0.647 µM	> 16.7 µM	0.215 µM	> 16.7 µM	> 16.7 µM	> 16.7 µM	–	–	> 5.37 µM	< 0.00167 µM	> 16.7 µM	< 0.00167 µM	< 0.00167 µM	< 0.00167 µM	< 0.00167 µM	< 0.00167 µM	< 0.00167 µM	–	–	< 0.00167 µM
C=CCOc1c(Br)cc(Br)cc1Br	> 100 µM	> 100 µM	45.7 µM	> 100 µM	–	67.1 µM	> 100 µM	> 100 µM	> 100 µM	4.8 µM	91.7 µM	7.92 µM	–	5.26 µM	6.7 µM	14.1 µM	9.32 µM	75.5 µM	57.6 µM	8.21 µM
Cc1ncc([N+](=O)[O-])n1CCNC(=O)CCCCn1ccnc1[N+](=O)[O-]	> 100 µM	> 100 µM	> 100 µM	> 100 µM	> 100 µM	> 100 µM	–	> 100 µM	> 100 µM	–	> 100 µM	–	–	–	–	–	–	–	–	–
O=C(N/N=C/c1ccc(Cl)cc1Cl)c1ccccc1Nc1cccc(C(F)(F)F)c1	32.2 µM	> 100 µM	> 100 µM	> 100 µM	10.5 µM	–	> 100 µM	25.4 µM	> 100 µM	13.3 µM	58.4 µM	4.86 µM	2.62 µM	–	4.79 µM	9.07 µM	11.3 µM	28.8 µM	4.27 µM	6.98 µM
Cc1sc(C)c(-c2ccc(CO)o2)c1-c1ccc(CO)o1	> 100 µM	> 100 µM	> 100 µM	> 100 µM	> 100 µM	0.472 µM	> 100 µM	–	> 100 µM	–	–	0.622 µM	> 100 µM	0.077 µM	51 µM	> 83.5 µM	0.0787 µM	> 100 µM	–	0.124 µM

Reference: PubChem BioAssay (NCI)
